# What was measured:
# Format in all cases: cell-based
# [1] = test system: human oral keratinocytes (HOK-18A); assay: Inflammatory mediator gene expression in keratinocytes exposed to substrate-treated biofilms (SYBR RT-qPCR); details: relative to control, n = 3
# Procedure: Cultures of immortalized human oral keratinocytes (HOK-18A) are grown. […] The IL-8 levels in the cellular supernatant are determined as well. RNA is converted to cDNA and relative expression of inflammatory mediator genes is determined as described above with respect to the cellular housekeeping gene β-actin.
# In HOKs exposed to substrate-treated (substrate concentrations of […]) multi-species biofilms, there are mostly decreases in inflammatory mediator gene expression as measured via SYBR RT-qPCR, the results of which are detailed in Table 7:
# Fold changes in inflammatory mediator gene expression from human oral keratinocytes (HOK-18A) exposed to substrate-treated multi-species biofilms are determined relatively to the control through the 2^^-ΔΔCt method and are shown as the geometric mean (C.I.) (n = 3) of the 2^^-ΔΔCt values. All substrates are dissolved in PBS at a concentration of 1 M (upper part) or 1%(w/v) (lower part). Values between 0 and 1 represent relative downregulation, values >1 represent relative upregulation.
# multi-species biofilms = assay: Organic acid levels in supernatant of multi-species biofilms (ion chromatography); details: >0 production, <0 consumption, n = 3
# Procedure: (§1) Biofilms are grown vertically on Calcium Deficient Hydroxyapatite (CAD-HA) disks (Hitemco Medical, Old Bethpage, USA) using the Amsterdam Active Adhesion model. Biofilms are allowed to establish during 24 h (37° C., 170 rpm) under microaerophilic conditions (6% O2, 7% CO2, 7% H2, 80% N2). After this 24 h, disks are rinsed 3 times a day for 3 minutes (RT, 250 rpm), for 3 consecutive days, by transferring the lid containing the disks to a new 24-well plate containing 2 mL/well of the appropriate substrate solution. As a negative control, PBS (pH 5.7) without substrate supplementation is used.
# Levels of organic acids in the filter sterilized supernatant of the multi-species biofilms are measured using a 761 Compact Ion Chromatograph (Metrhohm, Switzerland) with a Metrosep Organic acids Guard/4.6 guard column. The supernatants from the substrate-treated multi-species biofilms are analyzed to gain more insight into the influence of the substrates on organic acid consumption/production.
# S. mutans = assay: Multi-species biofilm composition, absolute abundance (Geq/mL); details: repeated rinsing
# Procedure: as §1
# (§2) N-acetyl-D-glucosamine (NADG), α-D-lactose, D-(+)-trehalose and D-(+)-raffinose are selected to determine their effects on multi-species biofilm composition. […] decrease in absolute numbers in at least four of the pathogenic bacterial species tested in the assay, in comparison to the control, the results of which are described in Table 1 below. Note, NADG decreased absolute numbers of S. sobrinus. Absolute abundances of bacterial species are shown as mean ± SD (n = 3) logarithmic values of the genome equivalents per millilitre (log(Geq/mL)).
# V. parvula = assay: as above; details: for absolute abundance of V. parvula (VP), mean ± SD log (Geq/mL): repeated rinsing
# Procedure: as §1, §2
# F. nucleatum = assay: as above; details: repeated rinsing
# Procedure: as §1, §2
# S. salivarius = assay: as above; details: repeated rinsing
# Procedure: as §1, §2
# A. viscosus = assay: as above; details: for absolute abundance of A. viscosus (Av), mean ± SD log (Geq/mL): repeated rinsing
# Procedure: as §1, §2
# S. sanguinis = assay: as above; details: repeated rinsing
# Procedure: as §1, §2
# [2] = test system: P. intermedia virulence genes; assay: Virulence gene expression in multi-species biofilm (SYBR RT-qPCR); details: for fold change in DnaJ expression, geometric mean (95% C.I.) / fold change in DnaK expression, geometric mean (95% C.I.) / fold change in ECF expression, geometric mean (95% C.I.) / fold change in GroES expression, geometric mean (95% C.I.) / fold change in HtpG expression, geometric mean (95% C.I.) / fold change in KpsD expression, geometric mean (95% C.I.) / fold change in adpc expression, geometric mean (95% C.I.) / fold change in clpB expression, geometric mean (95% C.I.) / fold change in inpA expression, geometric mean (95% C.I.) / fold change in phg expression, geometric mean (95% C.I.): relative to control = 1
# Procedure: as §1
# The virulence of the substrate-treated multi-species biofilms are evaluated by analyzing the relative expression of 33 genes that are recognized as being related to some form of virulence and from 4 periodontal pathogens.
# Expression of bacterial virulence genes is analyzed through SYBR RT-qPCR and normalized for bacterial housekeeping gene expression. […] These effects are illustrated in Tables 6a and 6b:
# Note, for Table 6d, fold changes in virulence gene expression are determined relatively to the control condition through the 2^^-ΔΔCt method and are shown as the geometric mean (C.I.) (n = 3) of the 2^^-ΔΔCt values. All substrates are dissolved in PBS at a concentration of 1 M (upper part) or 1%(w/v) (lower part). Values between 0 and 1 represent relative downregulation, values >1 represent relative upregulation. […] NADG: N-acetyl-D-glucosamine; C.I.: 95% confidence interval.
# [3] = HOK-18A exposed to biofilms treated with substrate 1% (w/v)
# [4] = HOK-18A exposed to biofilms treated with substrate 1 M
# [5] = substrate 1 M, listed as D-(+)-trehalose
# [6] = lower part of Table 6d, head prints 1 M (lower part 1%(w/v))
# [7] = upper part of Table 6d, substrate 1 M, n = 3
compound,measurement,setting,value
"OC[C@H]1O[C@H](O[C@H]2O[C@H](CO)[C@@H](O)[C@H](O)[C@H]2O)[C@H](O)[C@@H](O)[C@@H]1O [D-trehalose, D-(+)-trehalose]","fold change in IL-1β gene expression, geometric mean (C.I.)",[1]; [3],1.06 (0.55-2.06) fold
same,"fold change in IL-6 gene expression, geometric mean (C.I.)",[1]; [3],1.00 (0.46-2.17) fold
same,"fold change in IL-8 gene expression, geometric mean (C.I.)",[1]; [3],1.32 (0.89-1.94)^∗ fold
same,"fold change in MMP-8 gene expression, geometric mean (C.I.)",[1]; [3],0.66 (0.46-0.93) fold
same,"fold change in TNF-α gene expression, geometric mean (C.I.)",[1]; [3],0.94 (0.54-1.64) fold
same,"fold change in IL-1β gene expression, geometric mean (C.I.)",[1]; [4],0.79 (0.45-1.38) fold
same,"fold change in IL-6 gene expression, geometric mean (C.I.)",[1]; [4],1.27 (0.11-14.86) fold
same,"fold change in IL-8 gene expression, geometric mean (C.I.)",[1]; [4],0.22 (0.15-0.34)^∗ fold
same,"fold change in MMP-8 gene expression, geometric mean (C.I.)",[1]; [4],0.81 (0.68-0.95) fold
same,"fold change in TNF-α gene expression, geometric mean (C.I.)",[1]; [4],0.66 (0.41-1.06)^∗ fold
same,"acetate level in biofilm supernatant, mean ± SD",multi-species biofilms; substrate 1% (w/v),303 ± 13 mg/L
same,"butyrate level in biofilm supernatant, mean ± SD",multi-species biofilms; substrate 1% (w/v),1945 ± 9 mg/L
same,"formate level in biofilm supernatant, mean ± SD",multi-species biofilms; substrate 1% (w/v),3691 ± 89 mg/L
same,"lactate level in biofilm supernatant, mean ± SD",multi-species biofilms; substrate 1% (w/v),-125 ± 0 mg/L
same,"propionate level in biofilm supernatant, mean ± SD",multi-species biofilms; substrate 1% (w/v),1962 ± 8 mg/L
same,"acetate level in biofilm supernatant, mean ± SD",multi-species biofilms; substrate 1 M,1021 ± 41^∗ mg/L
same,"butyrate level in biofilm supernatant, mean ± SD",multi-species biofilms; substrate 1 M,0±0^∗ mg/L
same,"formate level in biofilm supernatant, mean ± SD",multi-species biofilms; substrate 1 M,75 ± 8^∗ mg/L
same,"lactate level in biofilm supernatant, mean ± SD",multi-species biofilms; substrate 1 M,4187 ± 200^∗ mg/L
same,"propionate level in biofilm supernatant, mean ± SD",multi-species biofilms; substrate 1 M,1577 ± 46^∗ mg/L
same,"acetate level in biofilm supernatant, mean ± SD",multi-species biofilms; [5],1021 ± 73 mg/L
same,"butyrate level in biofilm supernatant, mean ± SD",multi-species biofilms; [5],0 ± 0 mg/L
same,"formate level in biofilm supernatant, mean ± SD",multi-species biofilms; [5],75 ± 8 mg/L
same,"lactate level in biofilm supernatant, mean ± SD",multi-species biofilms; [5],4187 ± 200 mg/L
same,"propionate level in biofilm supernatant, mean ± SD",multi-species biofilms; [5],1577 ± 46 mg/L
same,"absolute abundance of S. mutans, mean ± SD log (Geq/mL)",S. mutans; substrate 1% (w/v),7.55 ± 0.25 log (Geq/mL)
same,"absolute abundance of S. mutans, mean ± SD log (Geq/mL)","S. mutans; substrate 1 M in PBS, n = 3",8.50 ± 0.29^∗ log (Geq/mL)
same,"absolute abundance of V. parvula (VP), mean ± SD log (Geq/mL)",V. parvula; substrate 1% (w/v),10.07 ± 0.28 log (Geq/mL)
same,reduction of V. parvula numbers in comparison to the control,V. parvula; substrate 1 M,~ 0.7 log(Geq/mL)
same,"absolute abundance of V. parvula (VP), mean ± SD log (Geq/mL)","V. parvula; substrate 1 M in PBS, n = 3",9.44 ± 0.25^∗ log (Geq/mL)
same,"absolute abundance of F. nucleatum (Fn), mean ± SD log (Geq/mL)",F. nucleatum; substrate 1% (w/v),9.35 ± 0.20 log (Geq/mL)
same,"absolute abundance of F. nucleatum (Fn), mean ± SD log (Geq/mL)","F. nucleatum; substrate 1 M in PBS, n = 3",6.51 ± 0.43^∗ log (Geq/mL)
same,"absolute abundance of S. salivarius, mean ± SD log (Geq/mL)",S. salivarius; substrate 1% (w/v),2.65 ± 0.00 log (Geq/mL)
same,"absolute abundance of S. salivarius, mean ± SD log (Geq/mL)","S. salivarius; substrate 1 M in PBS, n = 3",6.19 ± 0.07^∗ log (Geq/mL)
same,"absolute abundance of A. viscosus (Av), mean ± SD log (Geq/mL)",A. viscosus; substrate 1% (w/v),8.04 ± 0.28 log (Geq/mL)
same,decrease in A. viscosus numbers in comparison to the control,A. viscosus; substrate 1 M,1.9-2.5 log(Geq/mL)
same,"absolute abundance of A. viscosus (Av), mean ± SD log (Geq/mL)","A. viscosus; substrate 1 M in PBS, n = 3",6.05 ± 1.12^∗ log (Geq/mL)
same,"absolute abundance of S. sanguinis, mean ± SD log (Geq/mL)",S. sanguinis; substrate 1% (w/v),8.42 ± 0.43 log (Geq/mL)
same,"absolute abundance of S. sanguinis, mean ± SD log (Geq/mL)","S. sanguinis; substrate 1 M in PBS, n = 3",6.43 ± 0.97 log (Geq/mL)
same,"fold change in DnaJ expression, geometric mean (95% C.I.)",[2]; [6],0.62 (0.08-4.67) fold
same,"fold change in DnaK expression, geometric mean (95% C.I.)",[2]; [6],0.78 (0.44-1.36) fold
same,"fold change in ECF expression, geometric mean (95% C.I.)",[2]; [6],0.69 (0.53-0.91) fold
same,"fold change in GroES expression, geometric mean (95% C.I.)",[2]; [6],1.22 (0.61-2.45) fold
same,"fold change in HtpG expression, geometric mean (95% C.I.)",[2]; [6],0.69 (0.42-1.12) fold
same,"fold change in KpsD expression, geometric mean (95% C.I.)",[2]; [6],1.26 (0.52-3.08) fold
same,"fold change in adpc expression, geometric mean (95% C.I.)",[2]; [6],0.64 (0.29-1.4) fold
same,"fold change in clpB expression, geometric mean (95% C.I.)",[2]; [6],1.30 (0.44-3.83) fold
same,"fold change in inpA expression, geometric mean (95% C.I.)",[2]; [6],0.56 (0.31-1.01)^∗ fold
same,"fold change in phg expression, geometric mean (95% C.I.)",[2]; [6],0.86 (0.82-0.89) fold
same,impact on P. intermedia virulence gene expression,[2]; substrate 1% (w/v),limited impact
same,downregulation of P. intermedia virulence gene expression,[2]; substrate 1 M,5 fold
same,"fold change in DnaJ expression, geometric mean (95% C.I.)",[2]; [7],1.81 (1.21-2.71) fold
same,"fold change in DnaK expression, geometric mean (95% C.I.)",[2]; [7],8.82 (6.83-11.38)^∗ fold
same,"fold change in ECF expression, geometric mean (95% C.I.)",[2]; [7],6.97 (1.65-29.40)^∗ fold
same,"fold change in GroES expression, geometric mean (95% C.I.)",[2]; [7],11.52 (2.46-53.90)^∗ fold
same,"fold change in HtpG expression, geometric mean (95% C.I.)",[2]; [7],0.67 (0.43-1.03) fold
same,"fold change in KpsD expression, geometric mean (95% C.I.)",[2]; [7],0.59 (0.47-0.75) fold
same,"fold change in adpc expression, geometric mean (95% C.I.)",[2]; [7],1.45 (0.76-2.77) fold
same,"fold change in clpB expression, geometric mean (95% C.I.)",[2]; [7],1.90 (0.77-4.68) fold
same,"fold change in inpA expression, geometric mean (95% C.I.)",[2]; [7],0.81 (0.41-1.63) fold
same,"fold change in phg expression, geometric mean (95% C.I.)",[2]; [7],0.20 (0.14-0.29)^∗ fold

# From patent US20230346670A1, “Prebiotic Oral Care Compositions and Methods” (Colgate-Palmolive Company, priority 2020, published 2023)
